Measurements published in patent publication US12678488B2, “Batch management method for improving farrowing rate or number of piglets born alive in swine” (priority 2024, dated 2026).

System: Landrace x Large White reserve sows
Experiment: Heat detection: estrus rate and estrus time in gilts, different doses (Example 2)
Type: in vivo, pigs
Description: Landrace x Large White reserve sows, about 230 days old, were randomly divided into a batch farrowing with FTAI and batch farrowing with FTAI combined with different doses of 1-[bis(4-cyanophenyl)methyl]-1,2,4-triazole groups, and during the experiment, the experimental sows in each group were fed regularly and gained free access to water according to the requirements of feeding management in the farm.
Referring to the dosage of 1-[bis(4-cyanophenyl)methyl]-1,2,4-triazole in clinical medicine and using standard weight-dosage conversion, the recommended dosage of 1-[bis(4-cyanophenyl)methyl]-1,2,4-triazole for sows was 50-150 μg/kg·BW/day, orally for consecutive 5 days, as derived by conversion. In addition, the applicant previously studied uniparous cows, and in the ovulation induction scheme, the reference dosage of 1-[bis(4-cyanophenyl)methyl]-1,2,4-triazole was 60-200 μg/kg·BW, administered in a single dose; furthermore, by means of conversion in conjunction with the dosage for model animals (mice) previously in the laboratory, various dosages were designed. The treatment methods of hormones and drugs for sows in each group were as follows: • batch farrowing with FTAI: the sows were fed with an altrenogest oral solution at 20 mg/animal at the same time every day, for 18 days; PMSG at 1000 IU/animal was injected intramuscularly 42 h after the last feeding with altrenogest, GnRH at 100 μg/animal was injected intramuscularly 80 h after the injection of PMSG, a first timed insemination was performed 24 h after the injection of GnRH, and a second timed insemination was performed 16 h after the first insemination.
(§1) Treatment group 1: the hormone treatment and mating schemes for gilts were the same as FTAI. The difference lay in that PMSG at 1000 IU/gilt was injected intramuscularly 42 h after the last feeding with altrenogest, and 1-[bis(4-cyanophenyl)methyl]-1,2,4-triazole at 12 μg/kg·BW/day was administered orally 8 h after the injection of PMSG, for 1 day.
as §1, with “2:” for “1:”, “2 days.” for “1 day.”
as §1, with “3:” for “1:”, “20” for “12”
as §1, with “4:” for “1:”, “sows” for “gilts”, “1-[bis (4-cyanophenyl)methyl]-1,2,4-triazole” for “1-[bis(4-cyanophenyl)methyl]-1,2,4-triazole”, “20” for “12”, “2 days.” for “1 day.”
as §1, with “5:” for “1:”, “IU/animal” for “IU/gilt”, “20” for “12”, “3 days.” for “1 day.”
as §1, with “6:” for “1:”, “IU/animal” for “IU/gilt”, “20” for “12”, “5 days.” for “1 day.”
Treatment group 7: the hormone treatment and mating schemes for gilts were the same as FTAI. […]

Structure (SMILES): N#Cc1ccc(C(c2ccc(C#N)cc2)n2cncn2)cc1 [1-[bis(4-cyanophenyl)methyl]-1,2,4-triazole]
- Number of estrous animals at different times after stopping Altrenogest (day/animal) (day 5.5, Example 2 Treatment group 5: 20 μg/kg·BW/day orally, 3 days, gilts): 6 animal
- Number of estrous animals at different times after stopping Altrenogest (day/animal) (day 5.5, Example 2 Treatment group 6: 20 μg/kg·BW/day orally, 5 days, gilts): 0 animal
- Number of estrous animals at different times after stopping Altrenogest (day/animal) (day 5.5, Example 2 Treatment group 7: 40 μg/kg·BW/day orally, 1 day, gilts): 2 animal
- Number of estrous animals at different times after stopping Altrenogest (day/animal) (day 5.5, Example 2 Treatment group 8: 40 μg/kg·BW/day orally, 5 days, gilts): 0 animal
- Number of estrous animals at different times after stopping Altrenogest (day/animal) (day 6, Example 2 Treatment group 1: 12 μg/kg·BW/day orally, 1 day, gilts): 8 animal
- Number of estrous animals at different times after stopping Altrenogest (day/animal) (day 6, Example 2 Treatment group 2: 12 μg/kg·BW/day orally, 2 days, gilts): 7 animal
- Number of estrous animals at different times after stopping Altrenogest (day/animal) (day 6, Example 2 Treatment group 3: 20 μg/kg·BW/day orally, 1 day, gilts): 7 animal
- Number of estrous animals at different times after stopping Altrenogest (day/animal) (day 6, Example 2 Treatment group 4: 20 μg/kg·BW/day orally, 2 days, gilts): 6 animal
- Number of estrous animals at different times after stopping Altrenogest (day/animal) (day 6, Example 2 Treatment group 5: 20 μg/kg·BW/day orally, 3 days, gilts): 7 animal
- Number of estrous animals at different times after stopping Altrenogest (day/animal) (day 6, Example 2 Treatment group 6: 20 μg/kg·BW/day orally, 5 days, gilts): 5 animal
- Number of estrous animals at different times after stopping Altrenogest (day/animal) (day 6, Example 2 Treatment group 7: 40 μg/kg·BW/day orally, 1 day, gilts): 2 animal
- Number of estrous animals at different times after stopping Altrenogest (day/animal) (day 6, Example 2 Treatment group 8: 40 μg/kg·BW/day orally, 5 days, gilts): 2 animal
- Number of estrous animals at different times after stopping Altrenogest (day/animal) (day 6.5, Example 2 Treatment group 1: 12 μg/kg·BW/day orally, 1 day, gilts): 4 animal
- Number of estrous animals at different times after stopping Altrenogest (day/animal) (day 6.5, Example 2 Treatment group 2: 12 μg/kg·BW/day orally, 2 days, gilts): 3 animal
- Number of estrous animals at different times after stopping Altrenogest (day/animal) (day 6.5, Example 2 Treatment group 3: 20 μg/kg·BW/day orally, 1 day, gilts): 5 animal
- Number of estrous animals at different times after stopping Altrenogest (day/animal) (day 6.5, Example 2 Treatment group 4: 20 μg/kg·BW/day orally, 2 days, gilts): 4 animal
- Number of estrous animals at different times after stopping Altrenogest (day/animal) (day 6.5, Example 2 Treatment group 5: 20 μg/kg·BW/day orally, 3 days, gilts): 3 animal
- Number of estrous animals at different times after stopping Altrenogest (day/animal) (day 6.5, Example 2 Treatment group 6: 20 μg/kg·BW/day orally, 5 days, gilts): 3 animal
- Number of estrous animals at different times after stopping Altrenogest (day/animal) (day 6.5, Example 2 Treatment group 7: 40 μg/kg·BW/day orally, 1 day, gilts): 9 animal
- Number of estrous animals at different times after stopping Altrenogest (day/animal) (day 6.5, Example 2 Treatment group 8: 40 μg/kg·BW/day orally, 5 days, gilts): 2 animal
- Number of estrous animals at different times after stopping Altrenogest (day/animal) (day 7, Example 2 Treatment group 1: 12 μg/kg·BW/day orally, 1 day, gilts): 5 animal
- Number of estrous animals at different times after stopping Altrenogest (day/animal) (day 7, Example 2 Treatment group 2: 12 μg/kg·BW/day orally, 2 days, gilts): 3 animal
- Number of estrous animals at different times after stopping Altrenogest (day/animal) (day 7, Example 2 Treatment group 3: 20 μg/kg·BW/day orally, 1 day, gilts): 2 animal
- Number of estrous animals at different times after stopping Altrenogest (day/animal) (day 7, Example 2 Treatment group 4: 20 μg/kg·BW/day orally, 2 days, gilts): 2 animal
- Number of estrous animals at different times after stopping Altrenogest (day/animal) (day 7, Example 2 Treatment group 5: 20 μg/kg·BW/day orally, 3 days, gilts): 3 animal
- Number of estrous animals at different times after stopping Altrenogest (day/animal) (day 7, Example 2 Treatment group 6: 20 μg/kg·BW/day orally, 5 days, gilts): 8 animal
- Number of estrous animals at different times after stopping Altrenogest (day/animal) (day 7, Example 2 Treatment group 7: 40 μg/kg·BW/day orally, 1 day, gilts): 0 animal
- Number of estrous animals at different times after stopping Altrenogest (day/animal) (day 7, Example 2 Treatment group 8: 40 μg/kg·BW/day orally, 5 days, gilts): 0 animal
- Number of estrous animals at different times after stopping Altrenogest (day/animal) (day 7.5, Example 2 Treatment group 1: 12 μg/kg·BW/day orally, 1 day, gilts): 1 animal
- Number of estrous animals at different times after stopping Altrenogest (day/animal) (day 7.5, Example 2 Treatment group 2: 12 μg/kg·BW/day orally, 2 days, gilts): 1 animal
- Number of estrous animals at different times after stopping Altrenogest (day/animal) (day 7.5, Example 2 Treatment group 3: 20 μg/kg·BW/day orally, 1 day, gilts): 1 animal
- Number of estrous animals at different times after stopping Altrenogest (day/animal) (day 7.5, Example 2 Treatment group 4: 20 μg/kg·BW/day orally, 2 days, gilts): 1 animal
- Number of estrous animals at different times after stopping Altrenogest (day/animal) (day 7.5, Example 2 Treatment group 5: 20 μg/kg·BW/day orally, 3 days, gilts): 2 animal
- Number of estrous animals at different times after stopping Altrenogest (day/animal) (day 7.5, Example 2 Treatment group 6: 20 μg/kg·BW/day orally, 5 days, gilts): 1 animal
- Number of estrous animals at different times after stopping Altrenogest (day/animal) (day 7.5, Example 2 Treatment group 7: 40 μg/kg·BW/day orally, 1 day, gilts): 9 animal
- Number of estrous animals at different times after stopping Altrenogest (day/animal) (day 7.5, Example 2 Treatment group 8: 40 μg/kg·BW/day orally, 5 days, gilts): 0 animal
- Number of estrous animals at different times after stopping Altrenogest (day/animal) (day 8, Example 2 Treatment group 1: 12 μg/kg·BW/day orally, 1 day, gilts): 0 animal
- Number of estrous animals at different times after stopping Altrenogest (day/animal) (day 8, Example 2 Treatment group 2: 12 μg/kg·BW/day orally, 2 days, gilts): 0 animal
- Number of estrous animals at different times after stopping Altrenogest (day/animal) (day 8, Example 2 Treatment group 3: 20 μg/kg·BW/day orally, 1 day, gilts): 0 animal
- Number of estrous animals at different times after stopping Altrenogest (day/animal) (day 8, Example 2 Treatment group 4: 20 μg/kg·BW/day orally, 2 days, gilts): 0 animal
- Number of estrous animals at different times after stopping Altrenogest (day/animal) (day 8, Example 2 Treatment group 5: 20 μg/kg·BW/day orally, 3 days, gilts): 1 animal
- Number of estrous animals at different times after stopping Altrenogest (day/animal) (day 8, Example 2 Treatment group 6: 20 μg/kg·BW/day orally, 5 days, gilts): 2 animal
- Number of estrous animals at different times after stopping Altrenogest (day/animal) (day 8, Example 2 Treatment group 7: 40 μg/kg·BW/day orally, 1 day, gilts): 0 animal
- Number of estrous animals at different times after stopping Altrenogest (day/animal) (day 8, Example 2 Treatment group 8: 40 μg/kg·BW/day orally, 5 days, gilts): 0 animal
- estrus on the 8th day after altrenogest was stopped (gilts, 80 and 160 μg/kg·BW/day for 5 consecutive days (treatment groups 9 and 10)): no estrus
- estrus rate (gilts, high dose or multiple (5) low doses (treatment groups 6, 8, 9, and 10)): decreased estrus rate or even no estrus
- estrus rate (gilts, low dose (treatment groups 1, 2, 3, 4, 5, and 7), compared with FTAI group): not significantly different
- estrus in sows (high-dose): inhibited
- gilt estrus rate (low-dose, batch farrowing with FTAI): no significant change
